# Reference: US7582424B2 (priority 2000, dated 2009)
# Experiments:
# [1] = system: Ace-induced Isc response by T84 cell monolayers; experiment: cells; assay type: cell-based, human
# polarized T84 cells = details: cited from earlier work
# [2] = system: ACE-stimulated Isc in 16HBE14o- cell monolayers; assay type: cell-based, human
# T84 cell monolayers = assay type: cell-based, human
# chloride secretion = details: cited from earlier work
# cAMP = assay type: cell-based
# cGMP = assay type: cell-based
molecule,measurement,setting,value
"O=S(=O)(O)c1cc(N=C=S)ccc1C=Cc1ccc(N=C=S)cc1S(=O)(=O)O.[Na] [DIDS, 4,4′-diisothiocyanostilbene-2,2′-disulfonic acid, sodium]",inhibition at 500 µM,"[1]; Homo sapiens, T84, read-out: inhibition of the Ace-induced Isc response",50%
same,inhibition of forskolin-induced Isc response,polarized T84 cells,40%
same,inhibition of thapsigargin-induced Isc response,polarized T84 cells,100%
same,decrease in ACE-stimulated Isc,[2],40%
CCCCNc1cc(C(=O)O)cc(S(N)(=O)=O)c1Oc1ccccc1 [bumetanide],effect on Ace action when added after Ace,[1],reverses
same,inhibition at 100 µM,"[1]; Homo sapiens, T84, read-out: inhibition of the action of Ace (Isc)",~60%
same,effect by itself on Isc or PD,T84 cell monolayers,no effect
ω-conotoxin,effect on Ace-induced Isc response,[1],no significant effect
C/C=C(/C)C(=O)O[C@H]1C(C)=C2[C@H]([C@@H]1OC(=O)CCCCCCC)[C@@](C)(OC(C)=O)C[C@H](OC(=O)CCC)[C@@]1(O)[C@H]2OC(=O)[C@@]1(C)O [thapsigargin],"mean peak Isc, agent alone",T84 cell monolayers,10.2±4.3
Clc1ccccc1C(c1ccccc1)(c1ccccc1)n1ccnc1 [clotrimazole],reduction in Ace-stimulated Isc,[1],92%
same,inhibition of carbachol-dependent secretion,chloride secretion,84%
O=C1CN(/N=C/c2ccc(-c3ccc([N+](=O)[O-])cc3)o2)C(O)=N1 [dantrolene],inhibition at 50 µM,"[1]; Homo sapiens, T84, read-out: inhibition of Ace-induced Isc response",~70%
C[N+](C)(C)CCOC(N)=O [carbachol],effect on cellular cAMP,cAMP,no significant effect
same,effect on cellular cGMP,cGMP,no significant effect
same,effect of carbachol pretreatment on thapsigargin-induced chloride secretion (Isc response),T84 cell monolayers,blocks
same,"peak Isc, agent alone",T84 cell monolayers,9.8±1.1 μAmp/cm^2
same,return of Isc nearly to baseline,T84 cell monolayers,≤ 10 min
same,"time of peak Isc, agent alone",T84 cell monolayers,4 min
COc1ccc(CCN(C)CCCC(C#N)(c2ccc(OC)c(OC)c2)C(C)C)cc1OC (centres unmarked) [verapamil],effect on Ace-induced Isc response,[1],no significant effect
NPPB,decrease in ACE-stimulated Isc,[2],~80%
O=c1c(-c2ccc(O)cc2)coc2cc(O)cc(O)c12 [genistein],effect on the Isc response to Ace,[1],no effect
"CC(=O)OCOC(=O)CN(CC(=O)OCOC(C)=O)c1ccccc1OCCOc1ccccc1N(CC(=O)OCOC(C)=O)CC(=O)OCOC(C)=O [BAPTA, 1,2-bis(2-aminophenoxy)ethane-N,N,N′,N′-tetraacetic acid (BAPTA)-AM]",effect on Ace-induced Isc,[1],near ablation
C=C[C@@]1(C)CC(=O)[C@]2(O)[C@@]3(C)[C@@H](O)CCC(C)(C)[C@@H]3[C@H](O)[C@H](OC(C)=O)[C@@]2(C)O1 [forskolin],effect on cellular cGMP,cGMP,no effect
same,"mean peak Isc, forskolin followed by carbachol",T84 cell monolayers,69.3±2.4 μAmps/cm^2
same,"predicted additive effect, forskolin and carbachol, mean peak Isc",T84 cell monolayers,49.0±2.9
C[C@@H]1O[C@@H](O[C@H]2C[C@@H](O)[C@]3(CO)[C@H]4[C@H](O)C[C@]5(C)[C@@H](C6=CC(=O)OC6)CC[C@]5(O)[C@@H]4CC[C@]3(O)C2)[C@H](O)[C@H](O)[C@H]1O [ouabain],effect on Ace-induced Isc,[1],inhibits and reverses
